Reference: patent US9018206B2, “Carboxamide compounds and their use as calpain inhibitors” (AbbVie Deutschland GmbH & Co. KG, priority 2009, dated 2015)

Legend:
Format in all cases: biochemical
[1] = biological target: T1, calpain-I isolated from human erythrocytes (Homo sapiens, UniProt P07384); test: Calpain I enzyme inhibition in vitro (kinetic fluorescence assay); conditions: apparent Ki from IC50 (Cheng-Prussoff); 20 nM calpain-I, 100 μM Suc-Leu-Tyr-AMC, pH 7.3, room temperature
T1 construct: calpain-I—isolated from human erythrocytes; purchased Calbiochem 208713; host or cells: human erythrocytes (tissue-derived)
T1 sequence (P07384 1-714): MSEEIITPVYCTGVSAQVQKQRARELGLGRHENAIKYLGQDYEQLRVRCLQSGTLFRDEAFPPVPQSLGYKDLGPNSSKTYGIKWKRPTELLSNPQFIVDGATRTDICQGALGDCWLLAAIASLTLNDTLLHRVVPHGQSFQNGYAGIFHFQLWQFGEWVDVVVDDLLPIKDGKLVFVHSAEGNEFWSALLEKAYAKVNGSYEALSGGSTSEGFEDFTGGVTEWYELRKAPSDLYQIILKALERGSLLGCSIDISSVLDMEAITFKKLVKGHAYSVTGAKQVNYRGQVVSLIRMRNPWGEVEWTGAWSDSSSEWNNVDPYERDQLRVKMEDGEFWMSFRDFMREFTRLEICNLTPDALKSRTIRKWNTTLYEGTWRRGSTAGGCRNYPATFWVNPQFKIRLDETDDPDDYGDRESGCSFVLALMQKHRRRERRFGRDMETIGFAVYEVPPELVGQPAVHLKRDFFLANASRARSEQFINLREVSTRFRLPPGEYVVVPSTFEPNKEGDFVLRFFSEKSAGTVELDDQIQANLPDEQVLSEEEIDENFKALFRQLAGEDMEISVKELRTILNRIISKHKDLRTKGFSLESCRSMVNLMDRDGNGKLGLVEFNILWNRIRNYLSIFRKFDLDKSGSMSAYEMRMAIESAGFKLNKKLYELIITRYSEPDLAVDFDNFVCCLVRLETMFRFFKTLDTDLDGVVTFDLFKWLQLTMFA
T1 sequence (P04632 1-268 partner): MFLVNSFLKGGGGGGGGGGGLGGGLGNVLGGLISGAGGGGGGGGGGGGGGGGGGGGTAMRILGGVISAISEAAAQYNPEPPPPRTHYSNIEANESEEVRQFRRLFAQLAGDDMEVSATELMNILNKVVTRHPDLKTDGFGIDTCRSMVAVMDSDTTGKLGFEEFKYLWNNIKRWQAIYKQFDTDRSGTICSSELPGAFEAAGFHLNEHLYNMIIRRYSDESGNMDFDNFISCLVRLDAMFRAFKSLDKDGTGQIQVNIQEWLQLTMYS
Description: (§1) Testing for blockade of the corresponding enzymic activities was carried out by means of kinetic fluorescence assays (excitation 390 nm, emission 460 nm).
(§2) Apparent Ki values were calculated from the experimentally determined IC50 values by the Cheng-Prussoff relation assuming a reversible competitive enzyme inhibition. The Km values of the substrates used under the assay conditions indicated above were: 90 μM (Z-Phe-Arg-AMC, cathepsin B), 10 μM (Z-Gly-Pro-Arg-AMC, cathepsin K), 2 μM (Z-Phe-Arg-AMC, cathepsin L), and 30 μM (Z-Val-Val-Arg-AMC, cathepsin S).
(§3) The indicated Ki values are averages of the inhibition constants calculated on the basis of 2 to 4 independent dose-effect plots.
(§4) • 20 nM calpain-I—isolated from human erythrocytes (Calbiochem #208713), 100 μM Suc-Leu-Tyr-AMC (Bachem #I-1355) as substrate in buffer with 62 mM imidazole, 0.3 mM CaCl2, 0.10% CHAPS, 0.05% BSA, 1 mM DTT at pH 7.3 and room temperature. 1. Cathepsin B: • 0.25 nM cathepsin B—isolated from human liver (Calbiochem #219362), 100 μM Z-Phe-Arg-AMC (Bachem #I-1160) as substrate 50 mM MES, 2 mM EDTA, 0.05% Brij 35, 2.5 mM L-cysteine, pH 6.0, room temperature. 3. Cathepsin K: • 3 nM cathepsin K activated from recombinant human procathepsin K from E. coli (Calbiochem #342001), 10 μM Z-Gly-Pro-Arg-AMC (Biomol #P-142) as substrate in 50 mM MES, 2 mM EDTA, 0.05% Brij 35, 2.5 mM L-cysteine, pH 6.0, room temperature. 4. Cathepsin L: • 1 nM cathepsin L—isolated from human liver (Calbiochem #219402), 2 μM Z-Phe-Arg-AMC (Bachem #I-1160) as substrate in 50 mM MES, 2 mM EDTA, 0.05% Brij 35, 2.5 mM L-cysteine, pH 6.0, room temperature. 5. Cathepsin S: • 0.5 nM recombinant human cathepsin S from E. coli (Calbiochem #219343), 20 μM Z-Val-Val-Arg-AMC (Bachem #I-1540) as substrate in 50 mM MES, 2 mM EDTA, 0.05% Brij 35, 2.5 mM L-cysteine, pH 6.0, room temperature.

[2] = biological target: T2, cathepsin B isolated from human liver (Homo sapiens, UniProt P07858); test: Cathepsin B enzyme inhibition in vitro (kinetic fluorescence assay); conditions: Ki(cathepsin B)/Ki(calpain) ratio
T2 construct: cathepsin B—isolated from human liver; purchased Calbiochem 219362; host or cells: human liver (tissue-derived)
Description: as §1, §2, §3, §4

[3] = biological target: T3, cathepsin L isolated from human liver (Homo sapiens, UniProt P07711); test: Cathepsin L enzyme inhibition in vitro (kinetic fluorescence assay); conditions: Ki(cathepsin L)/Ki(calpain) ratio
T3 construct: cathepsin L—isolated from human liver; purchased Calbiochem 219402; host or cells: human liver (tissue-derived)
Description: as §1, §2, §3, §4

[4] = biological target: T4, recombinant human cathepsin S (Homo sapiens, UniProt P25774); test: Cathepsin S enzyme inhibition in vitro (kinetic fluorescence assay); conditions: Ki(cathepsin S)/Ki(calpain) ratio
T4 construct: purchased Calbiochem 219343; host or cells: E. coli
Description: as §1, §2, §3, §4

[5] = biological target: T5, cathepsin K activated from recombinant human procathepsin K (Homo sapiens, UniProt P43235); test: Cathepsin K enzyme inhibition in vitro (kinetic fluorescence assay); conditions: Ki(cathepsin K)/Ki(calpain) ratio
T5 construct: purchased Calbiochem 342001; host or cells: E. coli
T5 sequence (P43235 115-329): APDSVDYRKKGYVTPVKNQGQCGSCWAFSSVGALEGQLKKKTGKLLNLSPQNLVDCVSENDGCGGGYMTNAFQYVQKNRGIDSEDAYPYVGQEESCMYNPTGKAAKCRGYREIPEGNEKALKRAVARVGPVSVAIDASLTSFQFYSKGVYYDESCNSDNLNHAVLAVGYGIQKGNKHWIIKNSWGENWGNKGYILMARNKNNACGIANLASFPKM
Description: as §1, §2, §3, §4

T3 sequence (P07711 114-333): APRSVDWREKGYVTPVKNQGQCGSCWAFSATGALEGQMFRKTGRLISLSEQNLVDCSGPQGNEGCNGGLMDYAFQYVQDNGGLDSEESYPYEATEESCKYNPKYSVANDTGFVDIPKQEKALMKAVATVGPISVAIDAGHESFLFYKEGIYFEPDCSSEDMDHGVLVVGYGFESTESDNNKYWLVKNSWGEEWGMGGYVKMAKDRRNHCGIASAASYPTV
T4 sequence (P25774 115-331): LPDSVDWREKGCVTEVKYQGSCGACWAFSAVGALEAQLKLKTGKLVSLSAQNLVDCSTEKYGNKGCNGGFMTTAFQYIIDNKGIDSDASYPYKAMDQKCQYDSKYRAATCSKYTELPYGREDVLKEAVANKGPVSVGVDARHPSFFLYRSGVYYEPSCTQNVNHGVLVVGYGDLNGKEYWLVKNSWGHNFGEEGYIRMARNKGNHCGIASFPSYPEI

Structure (SMILES) | Ki [1] | Sel cat. B [2] | Sel cat. L [3] | Sel cat. S [4] | Sel cat. K [5]
C[C@H]1C[C@H](C(=O)NC(Cc2ccccc2)C(=O)C(N)=O)N(Cc2ccccc2)C1=O (stereo partly drawn) [Example 19, (2R,4S)—N-(4-Amino-3,4-dioxo-1-phenylbutan-2-yl)-1-benzyl-4-methyl-5-oxopyrrolidine-2-carboxamide] | < 50 nM | ++ (10<Ki(cathepsin B)/Ki(calpain)≦30) | ++ (10<Ki(cathepsin B)/Ki(calpain)≦30) | – | –
NC(=O)C(=O)C(Cc1ccccc1)NC(=O)[C@H]1CCC(=O)N1Cc1ccccc1OC(F)(F)F (stereo partly drawn) [Example 9, (2R)—N-(4-Amino-3,4-dioxo-1-phenylbutan-2-yl)-5-oxo-1-[2-(trifluoromethoxy)-benzyl]pyrrolidine-2-carboxamide] | 50 to 100 nM | – | +++ (Ki(cathepsin L)/Ki(calpain) ratio of >30) | +++ (Ki(cathepsin S)/Ki(calpain) ratio of >100) | +++ (Ki(cathepsin K)/Ki(calpain) ratio of >30)
NC(=O)C(=O)C(Cc1ccccc1)NC(=O)[C@H]1CCCC(=O)N1Cc1ccccc1 (stereo partly drawn) [Example 14, (2R)—N-(4-Amino-3,4-dioxo-1-phenylbutan-2-yl)-1-benzyl-6-oxopiperidine-2-carboxamide] | 50 to 100 nM | ++ (10<Ki(cathepsin B)/Ki(calpain)≦30) | ++ (10<Ki(cathepsin B)/Ki(calpain)≦30) | ++ (30<Ki(cathepsin B)/Ki(calpain)≦100) | –
NC(=O)C(=O)C(Cc1ccccc1)NC(=O)C1CCS(=O)(=O)N1Cc1ccccc1 (centres unmarked) [Example 10, N-(4-Amino-3,4-dioxo-1-phenylbutan-2-yl)-2-benzylisothiazolidine-3-carboxamide 1,1-dioxide] | < 50 nM | +++ (Ki(cathepsin B)/Ki(calpain) ratio of >30) | ++ (10<Ki(cathepsin B)/Ki(calpain)≦30) | – | –
CCNC(=O)C(=O)C(Cc1ccccc1)NC(=O)[C@H]1CCC(=O)N1Cc1c(F)cccc1F (mixture of isomers) [Example 49, (2R)-1-(2,6-Difluorobenzyl)-N-(4-(ethylamino)-3,4-dioxo-1-phenylbutan-2-yl)-5-oxopyrrolidine-2-carboxamide] | 100 to 600 nM | +++ (Ki(cathepsin B)/Ki(calpain) ratio of >30) | ++ (10<Ki(cathepsin B)/Ki(calpain)≦30) | – | –
NC(=O)C(=O)C(Cc1ccccc1)NC(=O)[C@H]1CCC(=O)N1Cc1cccc2ccccc12 (stereo partly drawn) [Example 11, (2R)—N-(4-Amino-3,4-dioxo-1-phenylbutan-2-yl)-1-(naphthalen-1-ylmethyl)-5-oxopyrrolidine-2-carboxamide] | < 50 nM | ++ (10<Ki(cathepsin B)/Ki(calpain)≦30) | – | ++ (30<Ki(cathepsin B)/Ki(calpain)≦100) | +++ (Ki(cathepsin K)/Ki(calpain) ratio of >30)
NC(=O)C(=O)C(Cc1ccccc1)NC(=O)[C@@H]1CCC(=O)N1Cc1ccccc1 (stereo partly drawn) [Example 2, (2S)—N-(4-Amino-3,4-dioxo-1-phenylbutan-2-yl)-1-benzyl-5-oxopyrrolidine-2-carboxamide] | 100 to 600 nM | – | + (5<Ki(cathepsin L)/Ki(calpain)≦10) | – | ++ (10<Ki(cathepsin B)/Ki(calpain)≦30)
O=C(NCCCc1ccccc1)C(=O)C(Cc1ccccc1)NC(=O)[C@H]1CCC(=O)N1Cc1ccccc1 (mixture of isomers) [Example 33, (2R)-1-Benzyl-N-(3,4-dioxo-1-phenyl-4-(3-phenylpropylamino)butan-2-yl)-5-oxopyrrolidine-2-carboxamide] | 50 to 100 nM | ++ (10<Ki(cathepsin B)/Ki(calpain)≦30) | – | ++ (30<Ki(cathepsin B)/Ki(calpain)≦100) | ++ (10<Ki(cathepsin B)/Ki(calpain)≦30)
NC(=O)C(=O)C(Cc1ccccc1)NC(=O)[C@H]1CCC(=O)N1Cc1cccc(OC(F)(F)F)c1 (stereo partly drawn) [Example 13, (2R)—N-(4-Amino-3,4-dioxo-1-phenylbutan-2-yl)-5-oxo-1-[3-(trifluoromethoxy)-benzyl]pyrrolidine-2-carboxamide] | 100 to 600 nM | + (5<Ki(cathepsin B)/Ki(calpain)≦10) | – | ++ (30<Ki(cathepsin B)/Ki(calpain)≦100) | +++ (Ki(cathepsin K)/Ki(calpain) ratio of >30)
O=C(NNC(=O)c1ccccc1)C(=O)C(Cc1ccccc1)NC(=O)[C@H]1CCC(=O)N1Cc1ccccc1 (mixture of isomers) [Example 57, (2R)—N-(4-(2-Benzoylhydrazinyl)-3,4-dioxo-1-phenylbutan-2-yl)-1-benzyl-5-oxopyrrolidine-2-carboxamide] | 50 to 100 nM | + (5<Ki(cathepsin B)/Ki(calpain)≦10) | – | +++ (Ki(cathepsin S)/Ki(calpain) ratio of >100) | ++ (10<Ki(cathepsin B)/Ki(calpain)≦30)
COc1cccc(CN2C(=O)CC[C@@H]2C(=O)NC(Cc2ccccc2)C(=O)C(N)=O)c1 (stereo partly drawn) [Example 6, (2R)—N-(4-Amino-3,4-dioxo-1-phenylbutan-2-yl)-1-(3-methoxybenzyl)-5-oxopyrrolidine-2-carboxamide] | < 50 nM | + (5<Ki(cathepsin B)/Ki(calpain)≦10) | – | ++ (30<Ki(cathepsin B)/Ki(calpain)≦100) | +++ (Ki(cathepsin K)/Ki(calpain) ratio of >30)
CCCNC(=O)C(=O)C(Cc1ccccc1)NC(=O)[C@H]1CCC(=O)N1Cc1ccccc1 (mixture of isomers) [Example 26, (2R)-1-Benzyl-N-(3,4-dioxo-1-phenyl-4-(propylamino)butan-2-yl)-5-oxopyrrolidine-2-carboxamide] | 100 to 600 nM | +++ (Ki(cathepsin B)/Ki(calpain) ratio of >30) | ++ (10<Ki(cathepsin B)/Ki(calpain)≦30) | – | +++ (Ki(cathepsin K)/Ki(calpain) ratio of >30)
O=C(NC1CC1)C(=O)C(Cc1ccccc1)NC(=O)[C@H]1CCC(=O)N1Cc1c(F)cccc1F (mixture of isomers) [Example 48, (2R)—N-(4-(Cyclopropylamino)-3,4-dioxo-1-phenylbutan-2-yl)-1-(2,6-difluorobenzyl)-5-oxopyrrolidine-2-carboxamide] | 100 to 600 nM | +++ (Ki(cathepsin B)/Ki(calpain) ratio of >30) | ++ (10<Ki(cathepsin B)/Ki(calpain)≦30) | – | –
